Results from PubChem BioAssay AID2060900 (Molecular Pharmacology Branch, DTP, NCI, 2025).
Values belong to the compound of their own block, whether it stands above or below them.

Test system: 521955-158-R2-J5-PDC complex spheroids, viability
Experiment: Anticancer human tumor 521955-158-R2-J5-PDC patient-derived pancreatic carcinoma cell line growth inhibition [RAS]
Details: for IC50: curve of first compound; for viability, T/C: stronger effect = lower value
Method in brief: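 Multi-cell-type spheroids: tumor cells plus HUVEC endothelial cells and mesenchymal stem cells. RAS-pathway inhibitors were combined with targeted agents, each dosed in half-log steps down from clinical Cmax, or from 10 microM when Cmax was unknown.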
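Further: compound exposure lasted seven days before the viability read.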
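Wherever viability, T/C is given: spheroids also contain HUVEC endothelial cells and mesenchymal stem cells as stroma.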

IC50 (second compound 0.0316 µM): > 1000 nM | IC50 (second compound 0.1 µM): > 1000 nM | IC50 (second compound 0.316 µM): > 1000 nM | IC50 (second compound 1 µM): > 1000 nM | IC50 (second compound 3.16 µM): < 3.16 nM | IC50 (second compound 10 µM): < 3.16 nM
SMILES: C=CC(=O)N1CCN(c2nc(OCC3CCCN3C)nc3c(F)c(-c4nc(N)cc(C)c4C(F)(F)F)c(Cl)cc23)C(C)C1 (centres undefined) + C#Cc1c(F)ccc2cc(O)cc(-c3ncc4c(N5CC6CCC(C5)N6)nc(OCC56CCCN5CC(F)C6)nc4c3F)c12
viability, T/C (second compound 0.0316 µM, first compound 0.00316 µM): 61.3% | viability, T/C (second compound 0.0316 µM, first compound 0.01 µM): 63.1% | viability, T/C (second compound 0.0316 µM, first compound 0.0316 µM): 74.1% | viability, T/C (second compound 0.0316 µM, first compound 0.1 µM): 57.2% | viability, T/C (second compound 0.0316 µM, first compound 0.316 µM): 55.6% | viability, T/C (second compound 0.0316 µM, first compound 1 µM): 71.8% | viability, T/C (second compound 0.1 µM, first compound 0.00316 µM): 55.9% | viability, T/C (second compound 0.1 µM, first compound 0.01 µM): 64.8% | viability, T/C (second compound 0.1 µM, first compound 0.0316 µM): 58.7% | viability, T/C (second compound 0.1 µM, first compound 0.1 µM): 48.8% | viability, T/C (second compound 0.1 µM, first compound 0.316 µM): 56.6% | viability, T/C (second compound 0.1 µM, first compound 1 µM): 61.8% | viability, T/C (second compound 0.316 µM, first compound 0.00316 µM): 53.2% | viability, T/C (second compound 0.316 µM, first compound 0.01 µM): 56.8% | viability, T/C (second compound 0.316 µM, first compound 0.0316 µM): 58.5% | viability, T/C (second compound 0.316 µM, first compound 0.1 µM): 54.8% | viability, T/C (second compound 0.316 µM, first compound 0.316 µM): 52.8% | viability, T/C (second compound 0.316 µM, first compound 1 µM): 52.1% | viability, T/C (second compound 1 µM, first compound 0.00316 µM): 48% | viability, T/C (second compound 1 µM, first compound 0.01 µM): 72.6% | viability, T/C (second compound 1 µM, first compound 0.0316 µM): 47.1% | viability, T/C (second compound 1 µM, first compound 0.1 µM): 60.7% | viability, T/C (second compound 1 µM, first compound 0.316 µM): 53.2% | viability, T/C (second compound 1 µM, first compound 1 µM): 59.2% | viability, T/C (second compound 3.16 µM, first compound 0.00316 µM): 42.4% | viability, T/C (second compound 3.16 µM, first compound 0.01 µM): 52.1% | viability, T/C (second compound 3.16 µM, first compound 0.0316 µM): 54.8% | viability, T/C (second compound 3.16 µM, first compound 0.1 µM): 56.9% | viability, T/C (second compound 3.16 µM, first compound 0.316 µM): 50.6% | viability, T/C (second compound 3.16 µM, first compound 1 µM): 47.2% | viability, T/C (second compound 10 µM, first compound 0.00316 µM): 40% | viability, T/C (second compound 10 µM, first compound 0.01 µM): 56.9% | viability, T/C (second compound 10 µM, first compound 0.0316 µM): 38.3% | viability, T/C (second compound 10 µM, first compound 0.1 µM): 43.6% | viability, T/C (second compound 10 µM, first compound 0.316 µM): 39.3% | viability, T/C (second compound 10 µM, first compound 1 µM): 29.8%

IC50 (second compound 0.000949 µM): > 1000 nM | IC50 (second compound 0.003 µM): > 1000 nM | IC50 (second compound 0.00949 µM): > 1000 nM | IC50 (second compound 0.03 µM): > 1000 nM | IC50 (second compound 0.0949 µM): > 1000 nM | IC50 (second compound 0.3 µM): > 1000 nM
SMILES: C=CC(=O)N1CCN(c2nc(OCC3CCCN3C)nc3c(F)c(-c4nc(N)cc(C)c4C(F)(F)F)c(Cl)cc23)C(C)C1 (centres undefined) + CCn1c(-c2cccnc2C(C)OC)c2c3cc(ccc31)N1CCOC(CC(NC(=O)C(C(C)C)N(C)C(=O)C3(F)CCN(C(=O)C#CC(C)(C)N(C)C)CC3)C(=O)N3CCCC(N3)C(=O)OCC(C)(C)C2)C1
viability, T/C (second compound 0.000949 µM, first compound 0.00316 µM): 100% | viability, T/C (second compound 0.000949 µM, first compound 0.01 µM): 104% | viability, T/C (second compound 0.000949 µM, first compound 0.0316 µM): 104% | viability, T/C (second compound 0.000949 µM, first compound 0.1 µM): 103% | viability, T/C (second compound 0.000949 µM, first compound 0.316 µM): 99.1% | viability, T/C (second compound 0.000949 µM, first compound 1 µM): 92.7% | viability, T/C (second compound 0.003 µM, first compound 0.00316 µM): 93.2% | viability, T/C (second compound 0.003 µM, first compound 0.01 µM): 88.3% | viability, T/C (second compound 0.003 µM, first compound 0.0316 µM): 107% | viability, T/C (second compound 0.003 µM, first compound 0.1 µM): 113% | viability, T/C (second compound 0.003 µM, first compound 0.316 µM): 86.5% | viability, T/C (second compound 0.003 µM, first compound 1 µM): 94.7% | viability, T/C (second compound 0.00949 µM, first compound 0.00316 µM): 97.7% | viability, T/C (second compound 0.00949 µM, first compound 0.01 µM): 111% | viability, T/C (second compound 0.00949 µM, first compound 0.0316 µM): 109% | viability, T/C (second compound 0.00949 µM, first compound 0.1 µM): 115% | viability, T/C (second compound 0.00949 µM, first compound 0.316 µM): 97.9% | viability, T/C (second compound 0.00949 µM, first compound 1 µM): 97.7% | viability, T/C (second compound 0.03 µM, first compound 0.00316 µM): 99.3% | viability, T/C (second compound 0.03 µM, first compound 0.01 µM): 92.8% | viability, T/C (second compound 0.03 µM, first compound 0.0316 µM): 97.7% | viability, T/C (second compound 0.03 µM, first compound 0.1 µM): 95.8% | viability, T/C (second compound 0.03 µM, first compound 0.316 µM): 95.2% | viability, T/C (second compound 0.03 µM, first compound 1 µM): 91.9% | viability, T/C (second compound 0.0949 µM, first compound 0.00316 µM): 88.5% | viability, T/C (second compound 0.0949 µM, first compound 0.01 µM): 86.8% | viability, T/C (second compound 0.0949 µM, first compound 0.0316 µM): 104% | viability, T/C (second compound 0.0949 µM, first compound 0.1 µM): 96.4% | viability, T/C (second compound 0.0949 µM, first compound 0.316 µM): 98.1% | viability, T/C (second compound 0.0949 µM, first compound 1 µM): 74.4% | viability, T/C (second compound 0.3 µM, first compound 0.00316 µM): 80% | viability, T/C (second compound 0.3 µM, first compound 0.01 µM): 78.2% | viability, T/C (second compound 0.3 µM, first compound 0.0316 µM): 90.1% | viability, T/C (second compound 0.3 µM, first compound 0.1 µM): 69.1% | viability, T/C (second compound 0.3 µM, first compound 0.316 µM): 89.4% | viability, T/C (second compound 0.3 µM, first compound 1 µM): 79.7%
